Results reported in US20110251188A1, “ACENAPHTHO HETEROCYCLE COMPOUNDS, CYCLODEXTRIN INCLUSION COMPOUNDS AND COMPLEXES, AND USES IN THE MANUFACTURES OF BH3 PROTEIN ANALOGUE, BCL-2 FAMILY PROTEIN INHIBITORS THEREOF” (DALIAN UNIVERSITY OF TECHNOLOGY, priority 2008, published 2011).

Columns and labels:
[1] = system: MCF-7 cells; assay: cytotoxicity depending on BAX/BAK, MTT, MCF-7 cells with or without BAX/BAK interfering plasmid; format: cell-based; conditions: MCF-7 cells, 48 hours, MTT
Method: 3 ng of BAX/BAK interfering plasmid was transfected into MCF-7 cells by using calcium phosphate coprecipitation method, 24 hours later, the cells were collected. The expressions after the BAX and BAK proteins interfered with RNA was detected by Western, and the cell groups without plasmid transfection were treated similarly and were set as the control group. The transfected cells were inoculated in a 96-well plate (1×10^5 cells/well), the control experiment of the cell group without plasmid transfection was carried out in parallel. The compound 3-thiomorpholinyl-8-oxo-8 H-acenaphtho[1,2-b]pyrrole-9-carbonitrile to be detected was added thereinto according to the concentration gradient designed before the experiment. 48 hours later, the cellular vitality was detected by MTT. The experimental results were shown in FIG. 6, Gossypol as nonspecific BH3 analogue was treated in parallel.

[2] = molecular target: T1, interaction between Bcl-2 and Bax (Homo sapiens, UniProt P10415); assay: intracellular fluorescence polarization energy transfer (FRET), Hela cells transfected with Bcl-2-CFP and Bax-YFP; format: cell-based
T1 construct: expressed in transfected cells; host or cells: Hela cells
T1 sequence (P10415 whole entry): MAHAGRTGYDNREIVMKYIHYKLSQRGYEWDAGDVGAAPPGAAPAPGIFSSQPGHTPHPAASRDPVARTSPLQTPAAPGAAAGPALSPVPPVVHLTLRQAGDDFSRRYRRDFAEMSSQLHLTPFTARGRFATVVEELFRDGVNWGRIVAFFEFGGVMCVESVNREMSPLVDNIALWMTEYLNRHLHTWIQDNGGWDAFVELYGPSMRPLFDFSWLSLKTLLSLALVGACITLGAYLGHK
Method: 24 hours later (please refer to FIG. 2), the cells were washed with PBS for three times. The fluorescence value was detected by GENIOS fluorescence enzyme-labelled meter (TECAN, Swiss). In time-dependent experiment, the transfected cells were inoculated in a 6-well plate, after that, 40 μM of the compound was added thereinto. 3, 6 and 24 hours later (FIG. 3), the fluorescence intensities were detected by plate reader. As for the cell group in which only Bcl-2-CFP plasmid was transfected, the values at 475 nm emission wave length and 433 nm excitation wave length were recorded. As for the cell group in which only Bax-YFP plasmid was transfected, the values at 527 nm emission wave length and 505 nm excitation wave length were recorded. […] The ratio of fluorescence intensity at 527 nm and 475 nm emission wave lengths was FRET. The FRET for the control group in which the plasmid was solely transfected was set as 1.0. […] The cellular vitality was detected by MTT method.
Wherein the concentration and time meant that the detected compound interfered with the interaction between Bcl-2 and Bax at the concentration for the time period.

[3] = molecular target: GST-Bcl-2 protein; assay: fluorescence polarization assay, competitive binding against FAM-Bid peptide; conditions: GST-Bcl-2 40 nM, FAM-Bid 5 nM, 4 hours of incubation; read-out: competitive binding constant (Ki)
Method: A Bid BH3 peptide (amino acids: 79-99: […]) having 21 amino acids was synthesized and marked with 6-carboxyfluorescein N-succinimidyl ester (FAM) as fluorescent tag (FAM-Bid) at the N-terminal. The reaction system used in the competitive binding experiment was GST-Bcl-2 protein (40 nM) or Mcl-1 protein, which was dissolved in the reaction buffer (100 mM K3PO4, pH 7.5; 100 μg/ml bovine γ albumin; 0.02% sodium azide) together with FAM-Bid polypeptide (5 nM). In a 96-well plate, 100 μL of the reaction system was added into each well. Then 1 μL different concentration of 3-thiomorpholinyl-8-oxo-8H-acenaphtho[1,2-b]pyrrole-9-carbonitrile mother solution to be detected dissolved in DMSO was added thereinto until the final concentration met the experimental design requirements. Meanwhile, two control groups were established, one with the reaction system only contains Bcl-2 or Mcl-1 and FAM-Bid (equivalent to 0% inhibition rate), the other with the reaction system only containing FAM-Bid peptide. After 4 hours of incubation, the 96-well plate was detected by enzyme-labelled meter. The fluorescent polarization value (mP) was tested at […]. Ki value was deduced according to calculation formula. The competitive binding constant between the compound and Bcl-2 was 310 nM.

[4] = system: hepatoma carcinoma cells H22; assay: in vivo tumor model, subcutaneous H22 tumor in Kunming mice; conditions: for tumor inhibition rate: experimental group 2: peritoneal injection of DMSO solution, 0.3 mg/kg BW every other day, 10 days, tumor volume on the fortieth day
Method: The Kunming mice (in China) were randomly divided into groups, with 10 mice in each group. The cultivated hepatoma carcinoma cells H22 were inoculated subcutaneously in the oxter of the mice with 200 μL/mouse. After bearing the cancer cells for five days, the subcutaneous tumor was formed. Then the compound 3-thiomorpholinyl-8-oxo-8H-acenaphtho[1,2-b]pyrrole-9-carbonitrile and γ-cyclodextrin inclusion compound thereof were given by peritoneal injection, and the compound to be detected included by γ-cyclodextrin was given by oral administration. The detection conditions comprise:
Blank control group: the mice were not treated in any manner after the bearing cancer;
Control group (1): the mice were given a peritoneal injection of DMSO solution every other day after the bearing cancer, 10 days in total;
Control group (2): the mice were given a peritoneal injection of cyclodextrin solution every other day after the bearing cancer, 10 days in total;
Experimental group (1): the mice were given a peritoneal injection of DMSO solution equivalent to 0.03 mg/kg BW compound every other day after the bearing cancer, 10 days in total;
Experimental group (2): the mice were given a peritoneal injection of DMSO solution equivalent to 0.3 mg/kg BW compound every other day after the bearing cancer, 10 days in total;
Experimental group (3): the mice were given a peritoneal injection of inclusion compound water solution equivalent to 0.3 mg/kg BW compound every other day after the bearing cancer, 10 days in total;
Experimental group (4): the mice were given an intragastric administration of inclusion compounds water solution equivalent to 0.3 mg/kg BW compound every other day after the bearing cancer, 10 days in total;
During the experimental period, the length-diameter (a) and short diameter (b), which was perpendicular to the length-diameter, of the tumor were detected twice every week. The gross tumor volume was determined according to the formula: ½ab^2. The survival time of the animal was observed. The tumor inhibition rate was calculated by the tumor volume on the fortieth day.

[5] = system: Mcl-1; assay: Western blotting, inhibition (downregulation) of Mcl-1 in tumor cells, Example 23; format: cell-based; conditions: for inhibition against Mcl-1: Western blotting, tumor cells
Method: (§1) The interest protein was detected by the corresponding antibody. The expression of the interest protein in the cells was detected by horseradish peroxidase-labeled secondary antibodies in combination with ECL coloration method. […] The concentration of the protein bands in the Western images were carried out semiquantitative analysis and normalization treatment with KODAK Gel Logic 1500 imaging system software.

[6] = system: Bcl-2; assay: Western blotting, inhibition (downregulation) of Bcl-2 in tumor cells, Example 23; format: cell-based; conditions: for inhibition against Bcl-2: Western blotting, tumor cells
Method: as §1

[7] = system: Bcl-2; assay: Western blotting, compounds compared with cyclodextrin inclusion compounds and complexes, Example 24; format: cell-based; conditions: Table 9; 10 μM or equivalent of inclusion compound, 24 hours
Method: (§2) The cells were inoculated in a 6-well plate (2×10^5 cells/well). In the compound group, the compound 3-thiomorpholinyl-8-oxo-8H-acenaphtho[1,2-b]pyrrole-9-carbonitrile was dissolved into DMSO until the final concentration reached 10 μM. In the inclusion group, γ-cyclodextrin inclusion, which had been dissolved into water and was equivalent to 10 μM of the compound, was added thereinto. 24 hours later, the cells were washed with PBS for three times, then the cell sample was collected and cracked with 1×10^6/50 μl cell lysis solution (62.5 mM Tris-HCL pH 6.8; 2% SDS; 10% glycerol; 50 mM DTT; 0.01% bromphenol blue) at low temperature, then the solution was centrifuged and the protein supernatant was collected. The sample was boiled at 100° C. for 5 minutes and then was separated by electrophoresis on 12% SDS-PAGE and transferred. The interest protein was detected by the corresponding antibody. The expression of the interest protein in the cells was detected by horseradish peroxidase-labeled secondary antibodies in combination with ECL coloration method. […] The concentration of the protein bands in the Western figures were carried out semiquantitative analysis and normalization treatment with KODAK Gel Logic 1500 imaging system software.

[8] = system: Mcl-1; assay: as above; format: cell-based; conditions: Table 8; 10 μM or equivalent of inclusion compound, 24 hours
Method: as §2

| Compound | dependence of cytotoxicity on BAX/BAK [1] | Time for which the compound interfered with the interaction between Bcl-2 and Bax ([2]; goes with the concentration of E11) [h] | Concentration at which the compound interfered with the interaction between Bcl-2 and Bax ([2]; goes with the time of E12) [µM] | Ki [3] [nM] | average life (survival time) of the animal ([4]; compound group, control group 28±2.1 days) [days] | tumor inhibition rate [4] | inhibition against Mcl-1 [5] | inhibition against Bcl-2 [6] | downregulation of Bcl-2 protein, semiquantitative analysis (band concentration, control = 1) [7] | downregulation of Mcl-1 protein, semiquantitative analysis (band concentration, control = 1) [8] | downregulation of Mcl-1 protein, semiquantitative analysis (band concentration, control = 1) ([5]; 6 hours) | downregulation of Mcl-1 protein, semiquantitative analysis (band concentration, control = 1) ([5]; 12 hours) | downregulation of Mcl-1 protein, semiquantitative analysis (band concentration, control = 1) ([5]; 18 hours) | downregulation of Mcl-1 protein, semiquantitative analysis (band concentration, control = 1) ([5]; 24 hours) | downregulation of Bcl-2 protein, semiquantitative analysis (band concentration, control = 1) ([6]; 2 hours) | downregulation of Bcl-2 protein, semiquantitative analysis (band concentration, control = 1) ([6]; 6 hours) |
| --- | --- | --- | --- | --- | --- | --- | --- | --- | --- | --- | --- | --- | --- | --- | --- | --- |
| N#CC1=C2C(=NC1=O)c1cccc3c(N4CCSCC4)ccc2c13 [3-thiomorpholinyl-8-oxo-8H-acenaphtho[1,2-b]pyrrole-9-carbonitrile] | cytotoxicity of absolute dependence on BAX/BAK | 3 | 2 | 310 | 33 ± 3.1 | 22.3% | had the inhibition against these two proteins | had the inhibition against these two proteins |  |  |  |  |  |  |  |  |
| N#CC1=C2C(=NC1=O)c1ccc(OC3CCOCC3)c3cccc2c13 [4-(tetrahydro-2H-pyranyl-4-oxo)-8-oxo-8H-acenaphtho[1,2-b]pyrrole-9-carbonitrile] |  |  |  |  |  | about 40% | had the inhibition against Bcl-2 and Mcl-1 proteins | had the inhibition against Bcl-2 and Mcl-1 proteins | 0.77 | 0.80 | 0.99 | 0.99 | 0.61 | 0.29 | 0.71 | 0.38 |
